Results published in patent US9387213B2, “Small molecules inhibiting oncoprotein Myc” (Health Research, Inc., priority 2012, dated 2016).

Legend:
SK-Mel-103 = assay: Suppression of proliferation / senescence induction in melanoma line; type: cell-based; details: Homo sapiens
Source text: (§1) 260 analogs of N77A7 were selected from several commercially available libraries of small molecules based on the structural similarities with N77A7. The compounds were screened for the ability to permanently suppress proliferation and induce senescence in cells from melanoma lines SK-Mel-19 and SK-Mel-103. Based on the above-described screening procedure, seven small molecules were identified as having IC50 values lower than that of N77A7.

SK-Mel-19 = assay: as above; type: cell-based; details: Homo sapiens, SK-MEL19
Source text: as §1

in vitro = details: microsomes, pH 7.4; for Percent Remaining 0 min: 0 h; for Percent Remaining 0 min / Percent Remaining 10 min / Percent Remaining 20 min / Percent Remaining 30 min / Percent Remaining 60 min: 1 μM; for Percent Remaining 30 min: 0.5 h; for Percent Remaining 60 min: 1 h
Description: Additionally, several of the N77A7 analogs were subjected to the test for the metabolic stability in human and mouse liver microsomes. Briefly, 1 μM of test compound was incubated with microsomal protein (human liver microsomes: 0.5 mg/mL; mouse liver microsomes 0.5 mg/mL) and buffer (100 mM potassium phosphate, pH 7.4, 5 mM magnesium chloride). The positive control was 5 μM testosterone. The reaction was equilibrated at 37 C in a shaking water bath for 3 to 5 minutes. After equilibration, an aliquot was removed and combined with 50/50 acetonitrile/water containing 0.1% formic acid and internal standard to terminate the reaction. 1 mM NADPH was immediately added and the tube was returned to the water bath. Five sample time points were taken (0, 10, 20, 30, and 60 minutes). Aliquots were removed and combined with 50/50 acetonitrile/water containing 0.1% formic acid and internal standard to terminate the reaction. The samples were mixed for 10 minutes and centrifuged. The supernatant from each sample was diluted (if necessary) and then transferred to vials for analysis by LC-MS/MS for the test compound and internal standard without calibration standards. The percent remaining at each time point was determined by the test compound's peak area response ratio versus the 0 minute sample.

HO-null cells = assay: Secondary filter for Myc specificity: cell growth inhibition, methylene blue staining; type: cell-based; details: Rattus norvegicus, 72 h, read-out: ID50 HO-null
Description: (§2) FIG. 4 illustrates the myc specificity of tested compounds. Rat1a cells expressing c-myc, L-myc or N-myc or lacking any Myc (null) were treated for 72 h with a range of hit compound concentrations. The cells were then fixed and stained with methylene blue and the percentage of cells in the presence of compound compared to DMSO only control was calculated.
(§3) Validated hits were divided into classes when two or more compounds shared significant structural similarity. The ID50 for N-myc transactivation (the inhibitory dose resulting in 50% decrease in luciferase activity) for each hit was calculated from the dose-response N-myc responsive reporter assay. Compounds within each class were ranked by their ID50 for N-myc transactivation and the best compounds within each class were chosen for further studies. In addition, the best of the structurally unique compounds were also analyzed. A total of 46 hits were passed through a secondary filter designed to determine the specificity of the hits for Myc proteins. For this filter, we used a panel of cell lines derived from Rat1a cells (kindly provided by Michael Cole, Dartmouth University): HO-null-c-Myc deficient cells due to homologous recombination that express neither N-myc nor L-myc HO-c-Myc, HO-L-myc and HO-N-myc derived by retroviral transduction of the corresponding Myc genes into HO-null cells. Since each cell line expresses only a single Myc or no Myc family members, we could identify compounds that act through Myc family members as well as which Myc family members. […] The 18 Myc-specific compounds identified during the screening and filtering process are presented in Table 1 and represent distinct classes of molecules, including pyrazoles (e.g., N147A7, N47E10, N147G5), tetrazoles (e.g., N77A7) and 3-bromophenol (e.g., N4G6).

HO-N-myc cells = assay: as above; type: cell-based, rat
Description: as §2, §3

HO-c-Myc cells = assay: as above; type: cell-based, rat
Description: as §2, §3

[1] = tested on: panel of tumor cell lines, including neuroblastoma and melanoma; assay: Effect of Myc inhibitors against panel of tumor cell lines, growth/viability by MTS and resazurin; type: cell-based, human; details: neuroblastoma lines IMR32, NBL-WN, 72 h
Description: FIG. 6 illustrates putative Myc inhibitors that are efficacious against tumor but not normal cells. Melanocytes and melanoma (#3 and #10) (A) and neuroblastoma (B) were incubated in the continuous presence of Myc inhibitors for 72 h and cell growth/viability determined by standard MTS and resazurin methods, respectively. Data for three hits is presented as a percent of DMSO vehicle control.

IC50 (SK-Mel-103) | IC50 (SK-Mel-19) | Percent Remaining 0 min (in vitro; human) | Percent Remaining 10 min (in vitro; human) | Percent Remaining 20 min (in vitro; human) | Percent Remaining 30 min (in vitro; human) | Percent Remaining 60 min (in vitro; human) | half-life at 1 µM (in vitro; human) | microsomal CLint at 1 μM (in vitro; human) | Percent Remaining 0 min (in vitro; mouse) | Percent Remaining 10 min (in vitro; mouse) | Percent Remaining 20 min (in vitro; mouse) | Percent Remaining 30 min (in vitro; mouse) | Percent Remaining 60 min (in vitro; mouse) | half-life at 1 µM (in vitro; mouse) | microsomal CLint at 1 μM (in vitro; mouse) | Compound | further results
250 nM | 350 nM | 100% | 49% | 31% | 18% | 6.9% | 11.5 min | 120 µL/min/mg | 100% | 20% | 8.9% | 4.3% | 1.2% | 4.6 min | 300 µL/min/mg | CCN(CC)Cc1c(C(=O)N/N=C/c2ccc(N(CC)CC)cc2O)nnn1-c1nonc1N [Compound 6] | –
250 nM | 350 nM | 100% | 46% | 25% | 20% | 11% | 10.7 min | 130 µL/min/mg | 100% | 26% | 7.1% | 3.8% | 1.4% | 5.2 min | 270 µL/min/mg | CCCN(CCC)Cc1c(C(=O)N/N=C/c2ccc(N(CC)CC)cc2O)nnn1-c1nonc1N [Compound 7] | –
– | – | – | – | – | – | – | – | – | – | – | – | – | – | – | – | COCc1cc(CN(C)C2CCCCC2)c(O)c2ncccc12 [Compound N269D8] | IC50 (HO-null cells): 4520 nM; Myc Index N (HO-N-myc cells; ID50 in HO-null cells divided by ID50 in HO—N-myc cells): 5.3; IC50 (HO-N-myc cells; Rattus norvegicus, cell growth inhibition, 72 h, methylene blue, read-out: ID50 HO—N-myc): 850 nM; Myc Index C (HO-c-Myc cells; ID50 in HO-null cells divided by ID50 in HO-c-myc cells): 6.3; IC50 (HO-c-Myc cells; Rattus norvegicus, cell growth inhibition, 72 h, methylene blue, read-out: ID50 HO-c-myc): 720 nM; toxicity to N-myc amplified lines versus SH-EP cells [1]: more toxic to the N-myc amplified cell lines, IMR32 and NBL-WN than to SH-EP cells
